According to US10342790B2, “Use of ceranib-2 in the treatment of lung cancer” (ANADOLU UNIVERSITESI REKTORLUGU, priority 2017, dated 2019):
pIC50: −log10 of the molar value.

Legend:
5RP7 cells = experiment: IC50 in 5RP7 cells (cytotoxicity); format: cell-based; settings: read-out: IC50 concentration in 5RP7 cells
MCF-7 cells = experiment: Electron micrographs of MCF-7 cells; format: cell-based, human; settings: MCF-7 cells treated for 24 hours
From the text: In FIG. 2, electron micrographs of the MCF-7 cells are seen.
FIG. 2: Electron transmission micrographs of MCF-7 cells.

NIH/3T3 cells = experiment: IC50 in NIH/3T3 cells (cytotoxicity); format: cell-based; settings: read-out: IC50 concentration in NIH/3T3 cells
[1] = value mentioned in the sources; read-out: IC50 concentration in cell-based experiments (in the sources); cited from earlier work
[2] = system: A549 lung cancer cell line; experiment: Microscopy of structural changes in A549 cells; format: cell-based, human; settings: A549 cells treated for 24 hours
From the text: In FIG. 3, the confocal microscope images of the study made on A549 type cells which is a lung cancer cell line are given.
FIG. 3: Electron transmission microscope images showing the structural changes in A549 cells.

synergistic tumor model = settings: 20-50 mg/kg; cited from earlier work
MCF-7 cell line = experiment: Confocal microscopy of MCF-7 cells; format: cell-based, human; settings: MCF-7 cells treated for 24 hours, acridine orange and phalloidine
From the text: In FIG. 1, the confocal microscopy images are provided belonging to the study made on the MCF-7 cell line. In the control cells, a tight and normal cell and cell nucleus structure are seen (FIG. 1A).
FIG. 1: Confocal electron transmission microscope image of MCF-7 cells painted with acridine orange and phalloidine.

[3] = system: A549 human lung adeno-carcinoma cells; experiment: MTT cyto-toxicity test, A549 cells; format: cell-based; settings: 24 hours incubation, read-out: IC50 concentration in A549 lung cancer cells
Method: A549 human lung adeno-carcinoma cells have been implanted to the cell culture plates with 96 wells such that there are 2×10^3 cells per well. The cells implanted to the plate have been incubated at 37° C. and in a medium of 5% carbon dioxide. A549 cells have been incubated for 24 hours in the concentration range of 5-65 μM with synthesized ceranib-2. At the end of the duration, 20 μL MTT dye (5 mg/mL) has been added to each well and it has been incubated for 2 hours more at 37° C. After the incubation, the liquid part in each well on the plate is discharged and 200 μL DMSO has been added for dissolving the formazan salts formed by viable cells and it has been waited for 10 minutes at room temperature. The color change occurring has been read at wavelength of 570 nm on the ELx808-IU (Bio-Tek, USA) plate reader. The experiment has been repeated 3 times. Separate viability values have been calculated according to the control group for each dose.

[4] = system: MCF-7 human breast cancer cells; experiment: IC50 in MCF-7 cells (cytotoxicity); format: cell-based; settings: read-out: IC50 concentration in MCF-7 human breast cancer cells

COc1ccc(C=CC(=O)c2c(-c3ccccc3)c3ccccc3[nH]c2=O)cc1 [ceranib-2, 3-[3-(4-methoxyphenyl)-1-oxo-2-prpen-1-yl]-4-phenyl-2(1H)-quinolinone]
pIC50 (5RP7 cells): 5.52 | Cell ultrastructure, electron micrographs (FIG. 2) (MCF-7 cells): the nucleus membrane is lost and the mitochondria is deformed | pIC50 (NIH/3T3 cells): 5.30 | pIC50 [1]: ~4.55 | Structural changes in cells, microscopy (FIG. 3) [2]: the cell nucleus is fragmentized, the cell shape is transformed from oval to round and deformations begin in the cell membrane, lipid drops are formed inside the cell, DNA fragmentizing occurs and holes occur inside the cell | Toxicity in vivo (synergistic tumor model): without leading to toxicity | Tumor growth (synergistic tumor model): inhibits tumor growth | Cell morphology, confocal microscopy (FIG. 1) (MCF-7 cell line): condensation is observed in the chromatin, holes are observed in the cell structure, shrunken cell nucleus is observed and fragmentizing cells are observed | pIC50 [3]: 4.85 | pIC50 [4]: 4.89
